Test results: patent US11958861B2, “Spirocyclic lactams as JAK2 V617F inhibitors” (Incyte Corporation, priority 2021, dated 2024)
Where a name gives a salt, the structure may show the parent alone.

Columns and labels:
[1] = biological target: T1, pseudo-kinase domain (JH2, amino-acids 536-812) of human Wild Type JAK2 (Homo sapiens, UniProt O60674, F794H/W659A/W777A); assay: JAK2 LanthaScreen JH2-WT Binding Assay; conditions: 1 hour at 25° C.
T1 construct: pseudo-kinase domain (JH2, amino-acids 536-812 with 3 surface mutations W659A, W777A, F794H); purchased BPS Bioscience 79463; host or cells: baculovirus expression system
Description: Example B. JAK2 LanthaScreen JH2-WT Binding Assay
(§1) JAK2 JH2-WT binding assay utilizes pseudo-kinase domain (JH2, amino-acids 536-812 with 3 surface mutations W659A, W777A, F794H) of human Wild Type JAK2 expressed as C-terminal His-Avi-tagged, biotinylated protein in a baculovirus expression system (BPS Bioscience, Catalog #79463). The assay was conducted in black 384-well polystyrene plates in a final reaction volume of 20 μL. JAK2 JH2-WT (0.145 nM) was incubated with compounds (100 nL serially diluted in DMSO) in the presence of 50 nM Fluorescent JAK2-JH2 Tracer (MedChem Express Catalog #HY-102055) and 0.25 nM Streptavidin-Tb cryptate (Cisbio Part #610SATLB) in assay buffer (50 mM Tris, pH=7.5, 10 mM MgCl2, 0.01% Brij-35, 0.1% BSA, 1 mM EGTA, 5% Glycerol and 5 mM DTT). Non-specific binding was accessed in the presence of 2 mM ATP. After incubation for 1 hour at 25° C., LanthaScreen signals were read on a PHERAstar FS plate reader (BMG LABTECH). Data was analyzed with IDBS XLfit and GraphPad Prism 5.0 software using a four parameter dose response curve to determine IC50 for each compound.

[2] = biological target: T2, catalytic domain (JH1, amino acids 808-1132) of human JAK2 (Homo sapiens, UniProt O60674); assay: JAK2 HTRF Enzyme Activity Assay; type: biochemical; conditions: ATP 30 μM, read-out: ENZ 30UMATP
T2 construct: catalytic domain (JH1, amino acids 808-1132) of human JAK2; His (N); purchased BPS Bioscience 40450; host or cells: baculovirus expression system
Description: Example D. JAK2 HTRF Enzyme Activity Assay
JAK2 enzyme activity assays utilize catalytic domain (JH1, amino acids 808-1132) of human JAK2 expressed as N-terminal His-tagged protein in a baculovirus expression system (BPS Bioscience, Catalog #40450). The assays was conducted in black 384-well polystyrene plates in a final reaction volume of 20 μL. JAK2 (0.015 nM) was incubated with compounds (100 nL serially diluted in DMSO) in the presence of ATP (30 μM or 1 mM) and 500 nM Biotin-labeled […] (SEQ ID NO.: 1) peptide (BioSource International, custom synthesis) in assay buffer (50 mM Tris, pH=7.5, 10 mM MgCl2, 0.01% Brij-35, 0.1% BSA, 1 mM EGTA, 5% Glycerol and 5 mM DTT) for 60 minutes at 25° C. The reactions were stopped by the addition of 10 μL of detection buffer (50 mM Tris, pH 7.8, 0.5 mg/mL BSA, 150 mM NaCl), supplemented with EDTA, LANCE Eu-W1024 anti-phosphotyrosine (PY20), (PerkinElmer, Catalog #AD0067) and Streptavidin SureLight APC (PerkinElmer Catalog #CR130-100), for a final concentration of 15 mM, 1.5 nM and 75 nM, respectively. HTRF signals were read after 30 minutes incubation at room temperature on a PHERAstar FS plate reader (BMG LABTECH). Data was analyzed with IDBS XLfit and GraphPad Prism 5.0 software using a four parameter dose response curve to determine IC50 for each compound.

[3] = biological target: T3, pseudo-kinase domain (JH2, amino-acids 536-812) of human V617F mutant JAK2 (Homo sapiens, UniProt O60674, F794H/V617F/W659A/W777A); assay: JAK2 LanthaScreen JH2-V617F Binding Assay; conditions: 1 hour at 25° C.
T3 construct: pseudo-kinase domain (JH2, amino-acids 536-812 with 3 surface mutations W659A, W777A, F794H); purchased BPS Bioscience 79498; host or cells: baculovirus expression system
Description: Example C. JAK2 LanthaScreen JH2-V617F Binding Assay
as §1, with “JH2-V617F” for “JH2-WT”, “V617F mutant” for “Wild Type”, “#79498).” for “#79463).”, “JH2-V617F (0.26” for “JH2-WT (0.145”

[4] = biological target: T4, catalytic domain (JH1, amino acids 826-1132) of human JAK2 (Homo sapiens, UniProt O60674); assay: JAK2 LanthaScreen JH1 Binding Assay; conditions: 2 hours at 25° C.
T4 construct: catalytic domain (JH1, amino acids 826-1132) of human JAK2; purchased Carna Biosciences 08-445-20N; host or cells: baculovirus expression system
Description: Example A. JAK2 LanthaScreen JH1 Binding Assay
JAK2 JH1 binding assay utilizes catalytic domain (JH1, amino acids 826-1132) of human JAK2 expressed as N-terminal FLAG-tagged, biotinylated protein in a baculovirus expression system (Carna Biosciences, Product #08-445-20N). The assay was conducted in black 384-well polystyrene plates in a final reaction volume of 20 μL. JAK2 JH1 (1.5 nM) was incubated with compounds (100 nL serially diluted in DMSO) in the presence of 50 nM Fluorescent JAK2-JH1 Tracer and 0.5 nM Streptavidin-Tb cryptate (Cisbio Part #610SATLB) in assay buffer (50 mM Tris, pH=7.5, 10 mM MgCl2, 0.01% Brij-35, 0.1% BSA, 1 mM EGTA, 5% Glycerol and 5 mM DTT). Non-specific binding was accessed in the presence of 2 mM ATP. After incubation for 2 hours at 25° C., LanthaScreen signals were read on a PHERAstar FS plate reader (BMG LABTECH). Data was analyzed with IDBS XLfit and GraphPad Prism 5.0 software using a four parameter dose response curve to determine IC50 for each compound.

T3 sequence (O60674 536-812 V617F/W659A/W777A/F794H): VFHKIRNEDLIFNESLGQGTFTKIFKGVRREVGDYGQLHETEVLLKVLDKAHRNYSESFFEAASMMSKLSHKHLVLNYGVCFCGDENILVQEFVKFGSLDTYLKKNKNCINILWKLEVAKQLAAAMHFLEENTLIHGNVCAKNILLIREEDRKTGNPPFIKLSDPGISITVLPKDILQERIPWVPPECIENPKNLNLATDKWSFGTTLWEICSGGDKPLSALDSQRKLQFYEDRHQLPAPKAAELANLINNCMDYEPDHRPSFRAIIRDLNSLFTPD
T4 sequence (O60674 826-1132): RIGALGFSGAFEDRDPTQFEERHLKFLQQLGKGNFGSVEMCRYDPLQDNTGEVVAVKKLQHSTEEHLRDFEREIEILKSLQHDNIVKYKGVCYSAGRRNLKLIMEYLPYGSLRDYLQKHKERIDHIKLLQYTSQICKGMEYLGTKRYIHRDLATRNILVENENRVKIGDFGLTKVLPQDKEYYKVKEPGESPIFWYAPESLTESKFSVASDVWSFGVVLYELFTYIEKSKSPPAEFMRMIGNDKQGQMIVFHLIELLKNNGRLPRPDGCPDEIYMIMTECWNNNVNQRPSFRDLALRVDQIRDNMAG
T1 sequence (O60674 536-812 W659A/W777A/F794H): as the sequence (O60674 536-812 V617F/W659A/W777A/F794H) above, with F82V counted along it
T2 sequence (O60674 808-1132): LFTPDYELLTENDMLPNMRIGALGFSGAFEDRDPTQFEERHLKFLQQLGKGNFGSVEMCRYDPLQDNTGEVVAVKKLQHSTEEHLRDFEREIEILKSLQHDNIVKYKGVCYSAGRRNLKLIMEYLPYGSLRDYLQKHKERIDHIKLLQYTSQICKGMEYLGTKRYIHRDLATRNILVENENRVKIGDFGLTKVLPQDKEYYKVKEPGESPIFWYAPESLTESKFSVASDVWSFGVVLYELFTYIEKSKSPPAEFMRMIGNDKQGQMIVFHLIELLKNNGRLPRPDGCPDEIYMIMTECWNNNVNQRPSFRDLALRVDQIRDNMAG

Row | SMILES | IC50 [1] | IC50 [2] | IC50 [3] | IC50 [4]
1 | [2H]C([2H])([2H])n1cc(-c2[nH]c3ncc4c(c3c2-c2ccc3c(cnn3C)c2)C2(CCN(CCC#N)CC2)C(=O)N4C)cn1 [Example 7, 3-(6-Methyl-1-(1-methyl-1H-indazol-5-yl)-2-(1-(methyl-d3)-1H-pyrazol-4-yl)-7-oxo-6,7-dihydro-3H-spiro[dipyrrolo[2,3-b:3′,2′-d]pyridine-8,4′-piperidin]-1′-yl)propanenitrile] | ≤ 100 nM | 1250 to 2500 nM | ≤ 100 nM | 1250 to 2500 nM
2 | COC(=O)N1CC2(N3CCC4(CC3)C(=O)N(C)c3cnc5[nH]c(-c6cnn(C)c6)c(-c6ccc7c(cnn7C)c6)c5c34)CC1C2 [Example 83, Methyl 4-(6-methyl-1-(1-methyl-1H-indazol-5-yl)-2-(1-methyl-1H-pyrazol-4-yl)-7-oxo-6,7-dihydro-3H-spiro[dipyrrolo[2,3-b:3′,2′-d]pyridine-8,4′-piperidin]-1′-yl)-2-azabicyclo[2.1.1]hexane-2-carboxylate] | ≤ 100 nM | 1250 to 2500 nM | ≤ 100 nM | 1250 to 2500 nM
3 | CN1C(=O)C2(CCN(C3(CC#N)CCC3)CC2)c2c1cnc1[nH]c(-c3cnn(CC(F)F)c3)c(-c3ccc4c(cnn4C)c3)c21 [Example 30, 2-(1-(2-(1-(2,2-Difluoroethyl)-1H-pyrazol-4-yl)-6-methyl-1-(1-methyl-1H-indazol-5-yl)-7-oxo-6,7-dihydro-3H-spiro[dipyrrolo[2,3-b:3′,2′-d]pyridine-8,4′-piperidin]-1′-yl)cyclobutyl)acetonitrile, trifluoroacetate salt] | ≤ 100 nM | 100 to 500 nM | ≤ 100 nM | 100 to 500 nM
4 | CC(=O)N1CCC(N2CC3(C2)C(=O)N(C)c2cnc4[nH]c(-c5ccc(CN6CCC(S(C)(=O)=O)CC6)cc5)c(-c5ccccc5)c4c23)CC1 [Example 3] | 100 to 500 nM | > 2500 nM | 100 to 500 nM | > 2500 nM
5 | COC(=O)NC1CC(CC#N)(N2CCC3(CC2)C(=O)N(C)c2cnc4[nH]c(-c5cnn(C)c5)c(-c5ccccc5)c4c23)C1 (single isomer, unassigned) [Example 27, Methyl (3-(cyanomethyl)-3-(6-methyl-2-(1-methyl-1H-pyrazol-4-yl)-7-oxo-1-phenyl-6,7-dihydro-3H-spiro[dipyrrolo[2,3-b:3′,2′-d]pyridine-8,4′-piperidin]-1′-yl)cyclobutyl)carbamate] | ≤ 100 nM | 100 to 500 nM | ≤ 100 nM | 100 to 500 nM
6 | CN1C(=O)C2(CCN(C3(CC#N)CCC3)CC2)c2c1cnc1[nH]c(-c3cnn(CC(C)(C)O)c3)c(-c3ccc(OC(F)(F)F)cc3)c21 [Example 50, 2-(1-(2-(1-(2-Hydroxy-2-methylpropyl)-1H-pyrazol-4-yl)-6-methyl-7-oxo-1-(4-(trifluoromethoxy)phenyl)-6,7-dihydro-3H-spiro[dipyrrolo[2,3-b:3′,2′-d]pyridine-8,4′-piperidin]-1′-yl)cyclobutyl)acetonitrile, trifluoroacetate salt] | ≤ 100 nM | > 2500 nM | ≤ 100 nM | > 2500 nM
7 | CC(=O)NC12CC(N3CCC4(CC3)C(=O)N(C)c3cnc5[nH]c(-c6cnn(C)c6)c(-c6ccc7c(cnn7C)c6)c5c34)(C1)C2 [Example 82, N-(3-(6-Methyl-1-(1-methyl-1H-indazol-5-yl)-2-(1-methyl-1H-pyrazol-4-yl)-7-oxo-6,7-dihydro-3H-spiro[dipyrrolo[2,3-b:3′,2′-d]pyridine-8,4′-piperidin]-1′-yl)bicyclo[1.1.1]pentan-1-yl)acetamide] | ≤ 100 nM | 100 to 500 nM | ≤ 100 nM | 100 to 500 nM
8 | CN1C(=O)C2(CCN(C3(CC#N)CCC3)CC2)c2c1cnc1[nH]c(-c3cnn(CCN4CCOCC4)c3)c(-c3ccc4c(cnn4C)c3)c21 [Example 38, 2-(1-(6-Methyl-1-(1-methyl-1H-indazol-5-yl)-2-(1-(2-morpholinoethyl)-1H-pyrazol-4-yl)-7-oxo-6,7-dihydro-3H-spiro[dipyrrolo[2,3-b:3′,2′-d]pyridine-8,4′-piperidin]-1′-yl)cyclobutyl)acetonitrile, trifluoroacetate salt] | ≤ 100 nM | ≤ 100 nM | ≤ 100 nM | 100 to 500 nM
9 | CCS(=O)(=O)N1CC2(C1)CC1(C2)C(=O)N(C)c2cnc3[nH]c(-c4cnn(CC5CCOCC5)c4)c(-c4ccc5c(cnn5C)c4)c3c21 [Example 97, 1-(Ethylsulfonyl)-6″-methyl-1″-(1-methyl-1H-indazol-5-yl)-2″-(1-((tetrahydro-2H-pyran-4-yl)methyl)-1H-pyrazol-4-yl)-3″,6″-dihydro-7″H-dispiro[azetidine-3,1′-cyclobutane-3′,8″-dipyrrolo[2,3-b:3′,2′-d]pyridin]-7″-one, trifluoroacetate salt] | ≤ 100 nM | 1250 to 2500 nM | ≤ 100 nM | 1250 to 2500 nM
10 | CN1C(=O)C2(CCOCC2)c2c1cnc1[nH]c(-c3ccc(CN4CCC(S(C)(=O)=O)CC4)cc3)c(-c3ccccc3)c21 [Example 1, 6-Methyl-2-(4-((4-(methylsulfonyl)piperidin-1-yl)methyl)phenyl)-1-phenyl-2′,3,3′,5′,6,6′-hexahydro-7H-spiro[dipyrrolo[2,3-b:3′,2′-d]pyridine-8,4′-pyran]-7-one] | ≤ 100 nM | 1250 to 2500 nM | ≤ 100 nM | 1250 to 2500 nM
